The results in this text go back to patent US4439606A, “Antiatherosclerotic 1-piperazinecarbonyl compounds” (American Cyanamid Company, priority 1982, dated 1984).

For assay [1], the target named is T1, fatty acyl CoA:-cholesterol acyl transferase (ACAT) (Rattus norvegicus, UniProt O70536).
T1 construct: The supernatant, containing the microsomal fraction, served as the source of the cholesterol-esterifying enzyme; from tissue; host or cells: rat adrenals, 1000 x g supernatant containing the microsomal fraction
T1 sequence (O70536 1-545): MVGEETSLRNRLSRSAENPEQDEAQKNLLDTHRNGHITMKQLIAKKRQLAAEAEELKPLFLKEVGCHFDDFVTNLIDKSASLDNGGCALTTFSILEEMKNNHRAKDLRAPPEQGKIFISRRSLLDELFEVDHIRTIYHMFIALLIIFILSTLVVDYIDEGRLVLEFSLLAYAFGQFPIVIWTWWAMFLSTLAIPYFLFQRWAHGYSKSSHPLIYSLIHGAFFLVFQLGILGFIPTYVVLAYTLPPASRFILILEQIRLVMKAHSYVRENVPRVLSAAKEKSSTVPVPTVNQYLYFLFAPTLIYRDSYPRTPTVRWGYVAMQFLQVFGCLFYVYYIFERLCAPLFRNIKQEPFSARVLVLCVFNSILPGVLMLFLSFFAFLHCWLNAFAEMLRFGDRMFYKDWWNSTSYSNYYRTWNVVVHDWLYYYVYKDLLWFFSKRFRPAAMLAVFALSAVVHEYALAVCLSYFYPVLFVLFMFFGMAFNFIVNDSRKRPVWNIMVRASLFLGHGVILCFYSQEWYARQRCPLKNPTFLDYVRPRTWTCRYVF
Put plainly: Inhibition of enzymatic esterification of cholesterol (ACAT inhibition), rat adrenal supernatant. The assay is classed as biochemical. To be noted: final concentration 5.2 μg./ml., 37° C., 30 minutes. The method, then:
The compounds of the present invention were tested for their ability to inhibit the enzymatic esterification of cholesterol according to the procedure of Hashimoto, et al., Life Sci., 12(Part II), 1-12 (1973).
Rat adrenals were homogenized in 0.2 M monobasic potassium phosphate buffer, pH 7.4, and centrifuged at 1000 times gravity for 15 minutes at 5° C. The supernatant, containing the microsomal fraction, served as the source of the cholesterol-esterifying enzyme, fatty acyl CoA:-cholesterol acyl transferase (ACAT). A mixture comprising 50 parts of adrenal supernatant, 10 parts of bovine serum albumin (50 mg./ml.), 3 parts of test compound (final concentration 5.2 μg./ml.) and 500 parts of buffer were preincubated at 37° C. for 10 minutes, following which 20 parts of oleoyl […] were added and the final mixture was incubated at 37° C. for 30 minutes. A control mixture, omitting the test compound, was prepared and treated in the same manner. The lipids from the incubation mixture were extracted into an organic solvent and separated by thin-layer chromatography. The cholesterol ester fraction was counted in a scintillation counter. A statistically significant inhibition of the ACAT enzyme is the criterion for activity.

A further assay deals with aortic sterol content. Put plainly: Decrease of aortic sterol content without effecting serum sterol in cholesterol-fed cockerels. Set-up: key: Active: Compounds which statistically decrease the aortic sterol content without having an effect on serum sterol are considered to be active. To be noted: 525 mg. test compound and 20 g. cholesterol per kg. of diet, 14 days. In kind it is in vivo, Day-old Cockerels. The method, then:
The compounds were further tested for their ability to decrease aortic sterol content without effecting serum sterol.
Day-old Cockerels were placed on diets consisting of pullet starter mash supplemented with either 20 g. cholesterol (control group) or 20 g. cholesterol and 525 mg. test compound (drug-treated group) per kg. of diet.
For the control diet, 20 g. of cholesterol was dissolved in 200 ml. of chloroform, mixed into one kg. of pullet starter mash and then the choloroform was removed by evaporation.
For the drug-treatment group, 525 mg. of the test compound was dissolved in 100 ml. of chloroform, mixed into a diet prepared as described above and then the chloroform was evaporated.
The cockerels were housed three per cage and given water and their respective diet ad libitum for 14 days. Blood was collected by cardiac puncture and the serum was saponified [Trinder, P., Analyst, 77, 321 (1952)] and extracted and the cholesterol content determinted [Zlatkis, A., et al., J. Lab Clin Med., 41 486 (1953)]. The aortae were removed, cleaned of adventitial tissue and the sterol content determined according to the above procedures. Compounds which statistically decrease the aortic sterol content without having an effect on serum sterol are considered to be active.

Assay [2] has as its system serum cholesterol and triglyceride. Kind of assay: Lowering of serum lipid levels, oral administration in diet to rats. The assay is classed as in vivo, male rats COBS, CD, SD strain. Conditions: 0.1% of test compound by weight in diet, 5 days, vs control rats. The method, then: The compounds were also tested for their ability to lower lipid levels in mammals. The compounds were administered orally admixed with diet to groups of four male rats COBS, CD, SD strain from Charles River Breeding Laboratories, Inc., Wilmington, Mass. A control group of eight rats was maintained on the diet alone; test groups were maintained on the diet plus 0.1% of test compound by weight. After 5 days treatment, serum cholesterol and triglyceride concentrations were determined by direct enzymatic procedures using a Centrifichem® System 400 autoanalyzer (Union Carbide Co.). Cholesterol concentrations were determined by the combined cholesterol esterasecholesterol oxidase procedure of Roeschlau, et al., Zeit. Klin. Chem. Klin. Biochem., 12, 226 (1974). Triglycerides were determined by the combined method of lipase catalyzed hydrolysis of triglycerides to glycerol and free fatty acids [Bucolo, G. and David, H., Clin. Chem., 19, 476 (1973) and Wahlefeld, A. W., in "Methods of Enzymatic Analysis," Vol, 4, Bergmeyer, H. D., Editor, Academic Press, New York, N.Y. (1974), pp. 1831-1835] and the enzymatic oxidation of the glycerol which leads to the production of colored formazan [Stavropoulos, W. S. and Crouch, R. D., Clin. Chem., 20, No. 7, 857 (1974)]. […] The compounds are considered active if they produce a statistically significant lowering of either sterol or triglycerides.

Structures are written as SMILES.

In general, inhibition refers to how much of the control response was suppressed. Compound `O=C(Cc1ccc([N+](=O)[O-])cc1)N1CCN(c2cnccn2)CC1` [1-(p-Nitrophenylacetyl)-4-(2-pyrazinyl)piperazine] gave an inhibition at 5.2 µg/mL in assay [1] of 36.4%. The “Result (decrease of aortic sterol content without effect on serum sterol)” value in the assay on aortic sterol content is “Active”.

In the case of `O=C(Cc1ccc(Cl)c(Cl)c1)N1CCN(c2cnccn2)CC1` [1-(3,4-Dichlorophenylacetyl)-4-(2-pyrazinyl)piperazine], in assay [1], the inhibition at 5.2 µg/mL was determined as 38.3%. In addition, in the assay on aortic sterol content, the “Result (decrease of aortic sterol content without effect on serum sterol)” value was “Active”.

`O=C(Cc1ccccc1)N1CCN(c2ccccc2)CC1` [1-phenyl-4-phenylacetylpiperazine, 1-Phenyl-4-phenylacetylpiperazine] registered an inhibition at 5.2 µg/mL in assay [1] of 34.6%. Besides, the “Result (decrease of aortic sterol content without effect on serum sterol)” value with aortic sterol content is on record as “Active”.

Turning to `Cc1ccc(CC(=O)N2CCN(c3cnccn3)CC2)cc1` [1-(2-Pyrazinyl)-4-(p-tolylacetyl)piperazine], the “% Lowering of Serum Triglycerides” value in assay [2] came to 49%. Moreover, the “Result (decrease of aortic sterol content without effect on serum sterol)” value in the assay on aortic sterol content is recorded as “Active”.

For the compound `Cc1ccccc1CC(=O)N1CCN(c2cnccn2)CC1` [1-(o-Methylphenylacetyl)-4-(2-pyrazinyl)piperazine], the “Result (decrease of aortic sterol content without effect on serum sterol)” value in the assay on aortic sterol content is given as “Active”.

`O=C(c1ccccc1C(F)(F)F)N1CCN(c2cnccn2)CC1` [1-(2-Pyrazinyl)-4-(α,α,α-trifluoro-o-toluoyl)piperazine]: in the assay with aortic sterol content, the “Result (decrease of aortic sterol content without effect on serum sterol)” value is “Active”.
